Where two headings read alike, the source gives them in different places.
Key:
[1] = tested on: topoisomerase IIα; test: Flow cytometric analysis of anti-topoisomerase IIα antibody, MCF-7; format: cell-based, human; conditions: 24 h
Description: To confirm the ELISA results, flow cytometric analysis of Top II activity using an anti-topoisomerase IIα antibody conjugated with phycoerythrin (PE) was performed. The Les-3331 and etoposide were used at 1 µM and 5 µM concentrations. Cancer cells were incubated for 24 h with tested compounds and the assay was carried out in accordance with the manufacturer’s protocol. Briefly, cells were centrifuged and resuspended in 4% formaldehyde. Then, cells were incubated at RT for 15 min and subsequently washed with excess PBS and centrifuged. Thereafter, ice-cold 90% methanol was added to the cells and they were incubated for 1 h in an ice bath. Next, cells were washed with excess PBS and centrifuged again. In the meantime, the primary antibody was diluted (1:100) in PBS. Then, cells were resuspended in the prepared primary antibody (100 µL) and incubated at RT, protected from light, for 1 h. Finally, cells were washed and resuspended in PBS (300 µL). The prepared samples were measured immediately. Analysis of the obtained results was performed using a flow cytometer (BD FACSCanto II, Becton Dickinson Biosciences Systems, San Jose, CA, USA) and FACSDiva software (v6.1.3, BD Biosciences Systems, San Jose, CA, USA). The equipment was calibrated with BD Cytometer Setup and Tracking Beads (BD Biosciences, San Diego, CA, USA).

[2] = tested on: LC3B; test: LC3B concentration in MDA-MB-231 cell lysates (ELISA); format: cell-based, human; conditions: 24 h, control 1.504 ng/mL
Description: (§1) High sensitivity assay kits (EIAab Science Co., Ltd., Wuhan, China; Abcam plc., Cambridge, United Kingdom; Cloud-Clone Corp., Katy, TX, USA) were used to determine the concentrations of selected proteins in cell lysates […] In brief, after trypsinization, cells were washed thrice with cold PBS and centrifuged at 1000× g for 5 min at 4 °C. Then, cells (1.5 × 10^6) were suspended in lysis buffer for whole-cell lysates. After the second centrifugation, cellular supernatants were frozen immediately at −70 °C. Untreated cancer cells were taken as a control.
(§2) The microtiter plates provided in the kits were pre-coated with an antibody specific to the analyzed antigen. The tests were carried out according to the manufacturer’s protocols.

[3] = tested on: LC3B; test: LC3B concentration in MCF-7 cell lysates (ELISA); format: cell-based, human; conditions: 24 h, control 1.194 ng/mL
Description: as §1, §2

[4] = tested on: Beclin-1; test: Beclin-1 concentration in MDA-MB-231 cell lysates (ELISA); format: cell-based, human; conditions: 24 h, control 3.605 ng/mL
Description: as §1, §2

[5] = tested on: topoisomerase II; test: Topoisomerase II concentration in MCF-7 cell lysates (ELISA); format: cell-based, human; conditions: 24 h, control 2.260 ng/mL
Description: (§3) High sensitivity assay kits (EIAab Science Co., Ltd., Wuhan, China; Abcam plc., Cambridge, United Kingdom; Cloud-Clone Corp., Katy, TX, USA) were used to determine the concentrations of selected proteins in cell lysates after 24 h incubation with novel compound and reference drug in 1 µM and 5 µM concentrations. In brief, after trypsinization, cells were washed thrice with cold PBS and centrifuged at 1000× g for 5 min at 4 °C. Then, cells (1.5 × 10^6) were suspended in lysis buffer for whole-cell lysates. After the second centrifugation, cellular supernatants were frozen immediately at −70 °C. Untreated cancer cells were taken as a control.
as §2

[6] = tested on: MCF-7 cancer cells; test: [3H]-thymidine incorporation assay, MCF-7; format: cell-based; conditions: Homo sapiens
Description: The antiproliferative properties of the newly synthesized compound were investigated through the [^3H]-thymidine incorporation assay, as described in the literature. Cells culture was exposed to various concentrations of Les-3331 acid and reference drug for 24 h. Thereafter, cells were washed with PBS and 1 mL of fresh medium was added to each well. Then, 0.5 µCi of radioactive [^3H]-thymidine was appended, and the incubation continued for four hours. After the following incubation, the liquid was aspirated and the plate was placed on ice. Cells were washed twice with 1 mL of 0.05 M Tris-HCl buffer comprising 0.11 M NaCl, then twice after that with 1 mL of 5% TCA acid (Stanlab, Lublin, Poland). Finally, the cells were dissolved with 1 mL of 0.1 M NaOH with 1% SDS (Sigma-Aldrich, St. Louis, MO, USA) at room temperature (RT). The resulting cell lysates were transferred into scintillation vials containing 2 mL of scintillation fluid. The radioactivity was determined using Scintillation Counter 1900 TR, TRI-CARB (Packard, Perkin Elmer, Inc., San Jose, CA, USA). The intensity of DNA biosynthesis in cells was expressed in dpm of radioactive thymidine incorporated in the DNA. The radioactivity observed in untreated control cells was taken as 100%. Values from the tested compounds were expressed as a percentage of the control value.

[7] = tested on: Beclin-1; test: Beclin-1 concentration in MCF-7 cell lysates (ELISA); format: cell-based, human; conditions: 24 h, control 7.965 ng/mL
Description: as §1, §2

[8] = tested on: caspase-9; test: Caspase-9 concentration in MDA-MB-231 cell lysates (ELISA); format: cell-based, human; conditions: 24 h, control 65.073 ng/mL
Description: as §3, §2

[9] = tested on: MDA-MB-231 cells; test: Annexin V binding assay (flow cytometry), MDA-MB-231; format: cell-based, human; conditions: 24 h
Description: The effect of Les-3331 and reference drug on the induction of apoptosis process in human breast cancer cell lines was evaluated using a flow cytometer (BD FACSCanto II, Becton Dickinson Biosciences Systems, San Jose, CA, USA) and Annexin V binding Apoptosis Detection Kit II (BD Biosciences, San Diego, CA, USA). The Les-3331 and reference drug were used in 1 µM and 5 µM concentrations. The test was carried out after 24 h incubation with the tested compounds according to the manufacturer’s protocol and was previously described by our research group. Analysis of the obtained results was performed using FACSDiva software (version 6.1.3, BD Biosciences Systems, San Jose, CA, USA). The equipment was calibrated with BD Cytometer Setup and Tracking Beads (BD Biosciences, San Diego, CA, USA).

COc1cc([C@@H]2c3cc4c(cc3[C@@H](O[C@@H]3O[C@@H]5CO[C@@H](C)O[C@H]5[C@H](O)[C@H]3O)[C@H]3COC(=O)[C@H]23)OCO4)cc(OC)c1O [Etoposide, reference compound]
% of cells without anti-topoisomerase IIα antibody ([1]; MCF-7, 1 µM): 8.6% | % of cells without anti-topoisomerase IIα antibody ([1]; MCF-7, 5 µM): 11.8% | LC3B concentration ([2]; MDA-MB-231, 1 µM): 0.784 ng/mL | LC3B concentration ([2]; MDA-MB-231, 5 µM): 0.615 ng/mL | LC3B concentration ([3]; MCF-7, 1 µM): 1.157 ng/mL | LC3B concentration ([3]; MCF-7, 5 µM): 0.779 ng/mL | Beclin-1 concentration ([4]; MDA-MB-231, 1 µM): 3.442 ng/mL | Beclin-1 concentration ([4]; MDA-MB-231, 5 µM): 3.004 ng/mL | Top II concentration ([5]; MCF-7, 1 µM): 1.587 ng/mL | Top II concentration ([5]; MCF-7, 5 µM): 1.443 ng/mL | IC50 ([6]; MCF7, MCF-7, 24 h incubation, read-out: IC50, cell proliferation ([3H]-thymidine incorporation)): > 20 µM | Beclin-1 concentration ([7]; 1 µM): 7.848 ng/mL | Beclin-1 concentration ([7]; 5 µM): 6.686 ng/mL | Casp-9 concentration ([8]; MDA-MB-231, 1 µM): 86.953 ng/mL | Casp-9 concentration ([8]; MDA-MB-231, 5 µM): 93.620 ng/mL | % of late and early apoptotic cells ([9]; MDA-MB-231, 1 µM): 4.7% | % of late and early apoptotic cells ([9]; MDA-MB-231, 5 µM): 7.2%

CC(C)C(C(=O)O)N1C(=O)/C(=C/C(Cl)=C/c2ccc([N+](=O)[O-])cc2)SC1=S (centres unmarked) [Les-3331, 2-{5-[(Z,2Z)-2-chloro-3-(4-nitrophenyl)-2-propenylidene]-4-oxo-2-thioxothiazolidin-3-yl}-3-methylbutanoic acid]
% of cells without anti-topoisomerase IIα antibody ([1]; MCF-7, 1 µM): 34.1% | % of cells without anti-topoisomerase IIα antibody ([1]; MCF-7, 5 µM): 49.2% | LC3B concentration ([2]; MDA-MB-231, 1 µM): 1.178 ng/mL | LC3B concentration ([2]; MDA-MB-231, 5 µM): 0.996 ng/mL | LC3B concentration ([3]; MCF-7, 5 µM): 1.002 ng/mL | Beclin-1 concentration ([4]; MDA-MB-231, 1 µM): 3.007 ng/mL | Top II concentration ([5]; MCF-7, 1 µM): 0.900 ng/mL | Top II concentration ([5]; MCF-7, 5 µM): 0.625 ng/mL | IC50 ([6]; MCF7, read-out: IC50, cell proliferation ([3H]-thymidine incorporation)): 5.54 µM | Beclin-1 concentration ([7]; 1 µM): 7.435 ng/mL | Beclin-1 concentration ([7]; 5 µM): 3.948 ng/mL | Casp-9 concentration ([8]; MDA-MB-231, 1 µM): 84.300 ng/mL | Casp-9 concentration ([8]; MDA-MB-231, 5 µM): 92.523 ng/mL | % of late and early apoptotic cells ([9]; MDA-MB-231, 1 µM): 5.1% | % of late and early apoptotic cells ([9]; MDA-MB-231, 5 µM): 18.1%
